# Measured values reported in ChEMBL document CHEMBL5154820 (Eur J Med Chem, 2022).
# What was measured:
# [1] = Octanol-water partition coefficient, logP of the compound incubated overnight by HPLC analysis; format: physicochemical
# [2] = Antiproliferative activity against human HeLa/DDP cells assessed as reduction in cell growth measured after 48 to 72 hrs by CCK-8 assay; format: functional, cell-based
# [3] = Antiproliferative activity against human SiHa/DDP cells assessed as reduction in cell growth measured after 48 to 72 hrs by CCK-8 assay; format: functional, cell-based, SiHa/cDDP
# Tubulin (Sus scrofa) = Tubulin (Sus scrofa) (UniProt P02554+P02550); assay: Inhibition of pig brain tubulin polymerization at 3 uM by spectrophotometer analysis relative to control; parameters: scale not given: the % may be the effect or the level left; conditions: Sus scrofa domesticus
# [4] = Cytotoxicity against HK-2 cells assessed as reduction in cell growth measured after 24 hrs by microplate reader analysis; format: toxicity, cell-based; conditions: human
# HeLa [5] = assay: Antiproliferative activity against human HeLa cells assessed as reduction in cell growth measured after 48 to 72 hrs by CCK-8 assay; format: functional, cell-based
# HeLa [6] = assay: Induction of apoptosis in human HeLa cells assessed as necrotic cells at 0.2 uM measured after 24 hrs by Annexin V-FITC/7-AAD staining based flow cytometric analysis (reference value: 0.56%); format: functional
# HeLa [7] = assay: Induction of apoptosis in human HeLa cells assessed as late apoptotic cells at 0.4 uM measured after 24 hrs by Annexin V-FITC/7-AAD staining based flow cytometric analysis (reference value: 8.51%); format: functional
# [8] = Aqueous solubility of compound at pH 7.0 phosphate buffer incubated overnight by HPLC analysis analysis; format: physicochemical
# HeLa [9] = assay: Antiproliferation activity against human HeLa cells assessed as reduction in cell growth measured after 48 to 72 hrs by CCK-8 assay; format: functional, cell-based
# [10] = Nephrotoxicity in BABL/c mouse assessed as increased creatinine level at 30 mg/kg, ip administered daily for 21 days relative to vehicle; format: toxicity, organism-based; conditions: in vivo, 504 h, time 21 day
# [11] = target: Tubulin beta (Homo sapiens) (UniProt P68371+Q9H4B7+Q13509+P04350+Q3ZCM7+P07437+Q13885+Q9BVA1+Q9BUF5+A6NNZ2); assay: Binding affinity to beta-tubulin colchicine binding site in human HeLa cells assessed as decrease of adduct formation by measuring gray value measured at 100 uM incubated for 2 hrs followed by addition of EBI measured after 1.5 hrs by EBI competition based Western blotting analysis; format: cell-based; conditions: time 3.5 hrs
# HeLa [12] = assay: Induction of cell cycle arrest in human HeLa cells assessed as >4N cells at 0.2 uM measured after 24 hrs by propidium iodide staining based flow cytometric analysis analysis ( Rvb = 8.84%); format: functional
# [13] = Apparent volume of distribution during terminal phase in C57 nude mouse at 30 mg/kg, ip measured at 0.083 to 24 hrs by LC/MS/MS analysis; format: ADME, organism-based; conditions: in vivo, time 0.083-24 hrs, read-out: Vz/F
# SiHa [14] = assay: Antiproliferation activity against human SiHa cells assessed as reduction in cell growth measured after 48 to 72 hrs by CCK-8 assay; format: functional, cell-based
# HeLa [15] = assay: Inhibition of colony formation in human HeLa cells at 20 nM and treated for every 48 hrs with fresh medium measured after 14 days by crystal violet staining method ( Rvb = 67.3%); format: functional; parameters: scale not given: the % may be the effect or the level left; conditions: time 14 day
# HeLa [16] = assay: Inhibition of colony formation in human HeLa cells at 50 nM and treated for every 48 hrs with fresh medium measured after 14 days by crystal violet staining method ( Rvb = 67.3%); format: functional; parameters: scale not given: the % may be the effect or the level left; conditions: time 14 day
# HeLa [17] = assay: Induction of apoptosis in human HeLa cells assessed as late apoptotic cells at 0.1 uM measured after 24 hrs by Annexin V-FITC/7-AAD staining based flow cytometric analysis (reference value: 8.51%); format: functional
# HeLa [18] = assay: Induction of cell cycle arrest in human HeLa cells assessed as < 2N cells at 0.4 uM measured after 24 hrs by propidium iodide staining based flow cytometric analysis analysis ( Rvb = 7.07%); format: functional
# [19] = Acute toxicity in ICR mouse assessed as median lethal dose administered intraperitoneally upto 14 days; conditions: in vivo, route ip, time < 14 day
# [20] = Retention time of the compound; format: physicochemical
# HeLa [21] = assay: Antimigratory activity against human HeLa cells at 0.1 uM measured after 24 hrs by scratch wound healing based fluorescence inverted microscopic analysis; format: functional
# SiHa [22] = assay: Antiproliferative activity against human SiHa cells assessed as reduction in cell growth measured after 48 to 72 hrs by CCK-8 assay; format: functional, cell-based
# [23] = Half life in C57 nude mouse at 30 mg/kg, ip measured at 0.083 to 24 hrs by LC/MS/MS analysis; format: ADME, organism-based; conditions: in vivo, time 0.083-24 hrs
# [24] = target: Voltage-gated inwardly rectifying potassium channel KCNH2 (Homo sapiens, UniProt Q12809); assay: Inhibition of human ERG expressed in CHO cells with holding potential of -80 mV by whole cell patch clamp assay; format: toxicity, cell-based
# HeLa [25] = assay: Induction of apoptosis in human HeLa cells assessed as late apoptotic cells at 0.2 uM measured after 24 hrs by Annexin V-FITC/7-AAD staining based flow cytometric analysis (reference value: 8.51%); format: functional
# [26] = Toxicity in BABL/c mouse xenografted with human HeLa cells assessed as body weight gain at 30 mg/kg, ip administered daily for 21 days followed by addition of 3 mg/kg DDP for every 2 days and measured every 3 days; format: organism-based; conditions: in vivo, 504 h, time 21 day
# [27] = Aqueous solubility of compound at pH 2.0 in phosphate buffer incubated overnight by HPLC analysis; format: physicochemical
# [28] = Acute toxicity against ICR mouse assessed as focal necrosis in liver at 1000 mg/kg, ip measured after 14 days by H and E staining method; format: organism-based; conditions: in vivo, 336 h, time 14 day
# [29] = Aqueous solubility of compound at pH 7.4 in phosphate buffer incubated overnight by HPLC analysis; format: physicochemical
# [30] = Antiproliferation activity against human MS751 cells assessed as reduction in cell growth measured after 48 to 72 hrs by CCK-8 assay; format: functional, cell-based
# HeLa [31] = assay: Induction of cell cycle arrest in human HeLa cells assessed as accumulation of cells at G2/M phase at 0.1 uM after 24 hrs by propidium iodide staining based flow cytometric analysis (reference value: 20.3%); format: functional
# HeLa [32] = assay: Induction of apoptosis in human HeLa cells assessed as late apoptotic cells at 6 nM measured after 24 hrs by Annexin V-FITC/7-AAD staining based flow cytometric analysis (reference value: 5.22%); format: functional
# HeLa [33] = assay: Induction of apoptosis in human HeLa cells assessed as early apoptotic cells at 3 nM measured after 24 hrs by Annexin V-FITC/7-AAD staining based flow cytometric analysis (reference value: 18.8%); format: functional
# HeLa [34] = assay: Induction of apoptosis in human HeLa cells assessed as necrotic cells at 6 nM measured after 24 hrs by Annexin V-FITC/7-AAD staining based flow cytometric analysis (reference value: 0.45%); format: functional
# HeLa [35] = assay: Induction of apoptosis in human HeLa cells assessed as late apoptotic cells at 1.5 nM measured after 24 hrs by Annexin V-FITC/7-AAD staining based flow cytometric analysis (reference value: 5.22%); format: functional
# HeLa [36] = assay: Induction of apoptosis in human HeLa cells assessed as early apoptotic cells at 1.5 nM measured after 24 hrs by Annexin V-FITC/7-AAD staining based flow cytometric analysis (reference value: 18.8%); format: functional
# Tubulin (Sus scrofa), sequence (P02550 whole entry, looked up): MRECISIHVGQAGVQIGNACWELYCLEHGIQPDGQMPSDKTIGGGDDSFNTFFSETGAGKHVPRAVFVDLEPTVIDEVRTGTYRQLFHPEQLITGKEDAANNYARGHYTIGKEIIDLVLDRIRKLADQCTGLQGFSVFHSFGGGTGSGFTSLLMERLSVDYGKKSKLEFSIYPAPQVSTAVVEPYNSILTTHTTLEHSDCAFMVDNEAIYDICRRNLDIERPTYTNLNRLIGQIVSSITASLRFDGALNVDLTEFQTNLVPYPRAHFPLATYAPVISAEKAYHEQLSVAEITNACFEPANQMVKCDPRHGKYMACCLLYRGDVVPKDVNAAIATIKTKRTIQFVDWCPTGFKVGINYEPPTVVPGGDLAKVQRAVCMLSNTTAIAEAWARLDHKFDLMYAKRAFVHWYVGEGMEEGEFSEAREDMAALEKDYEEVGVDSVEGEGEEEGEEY
# Tubulin (Sus scrofa), sequence (P02554 whole entry, looked up): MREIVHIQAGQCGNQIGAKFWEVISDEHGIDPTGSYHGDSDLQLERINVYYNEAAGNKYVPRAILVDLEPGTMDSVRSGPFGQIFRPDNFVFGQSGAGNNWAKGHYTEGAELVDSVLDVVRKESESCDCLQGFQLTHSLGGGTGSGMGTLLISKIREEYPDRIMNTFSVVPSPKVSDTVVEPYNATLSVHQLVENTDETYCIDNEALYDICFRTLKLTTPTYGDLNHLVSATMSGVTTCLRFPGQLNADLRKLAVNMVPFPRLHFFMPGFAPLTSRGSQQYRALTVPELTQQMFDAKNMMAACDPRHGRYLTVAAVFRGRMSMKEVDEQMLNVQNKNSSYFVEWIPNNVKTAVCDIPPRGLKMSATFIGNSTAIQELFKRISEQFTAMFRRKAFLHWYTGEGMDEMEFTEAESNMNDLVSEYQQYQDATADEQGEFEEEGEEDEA
# Voltage-gated inwardly rectifying potassium channel KCNH2, sequence (Q12809 whole entry): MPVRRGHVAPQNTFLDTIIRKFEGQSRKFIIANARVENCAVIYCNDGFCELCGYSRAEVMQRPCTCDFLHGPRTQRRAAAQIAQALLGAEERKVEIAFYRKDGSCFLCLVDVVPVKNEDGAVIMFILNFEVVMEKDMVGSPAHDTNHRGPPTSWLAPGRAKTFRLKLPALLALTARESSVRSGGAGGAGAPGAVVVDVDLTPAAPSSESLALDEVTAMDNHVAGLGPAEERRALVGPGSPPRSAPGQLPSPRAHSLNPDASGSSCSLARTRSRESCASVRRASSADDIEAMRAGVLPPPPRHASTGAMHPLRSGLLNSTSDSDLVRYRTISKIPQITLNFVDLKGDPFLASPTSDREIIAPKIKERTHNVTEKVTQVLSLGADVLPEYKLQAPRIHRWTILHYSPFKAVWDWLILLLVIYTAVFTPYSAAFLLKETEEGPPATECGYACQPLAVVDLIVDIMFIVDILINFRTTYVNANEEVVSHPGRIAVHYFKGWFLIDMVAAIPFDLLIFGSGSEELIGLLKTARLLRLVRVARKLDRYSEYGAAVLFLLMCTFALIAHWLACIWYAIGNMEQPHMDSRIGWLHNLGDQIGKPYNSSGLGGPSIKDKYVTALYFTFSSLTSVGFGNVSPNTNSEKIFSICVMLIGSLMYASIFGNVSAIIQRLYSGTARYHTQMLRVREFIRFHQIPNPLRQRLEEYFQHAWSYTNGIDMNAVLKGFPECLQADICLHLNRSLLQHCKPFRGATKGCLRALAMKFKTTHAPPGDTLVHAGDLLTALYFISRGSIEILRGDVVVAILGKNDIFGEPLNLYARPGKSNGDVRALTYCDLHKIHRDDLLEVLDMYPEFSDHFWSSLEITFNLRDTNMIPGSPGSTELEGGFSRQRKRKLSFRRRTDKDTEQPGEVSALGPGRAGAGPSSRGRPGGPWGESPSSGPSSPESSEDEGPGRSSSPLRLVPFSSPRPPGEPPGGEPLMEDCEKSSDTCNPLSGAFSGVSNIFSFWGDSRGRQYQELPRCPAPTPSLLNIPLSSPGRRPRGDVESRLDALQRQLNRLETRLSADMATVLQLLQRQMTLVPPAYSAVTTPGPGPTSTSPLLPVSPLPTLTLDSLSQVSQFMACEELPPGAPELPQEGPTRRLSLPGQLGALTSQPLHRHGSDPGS
structure (smiles),measurement,setting,value
CCOc1ccc(-c2cncnc2-c2cc(OC)c(OC)c(OC)c2)cc1Cl,logP,[1],2.36
same,IC50,[2],7210 nM
same,IC50,[3],6280 nM
same,Activity,Tubulin (Sus scrofa),39%
same,IC50 at 24 h,[4],188000 nM
same,IC50,HeLa [5],90 nM
same,Activity,HeLa [6],0.52%
same,Activity,HeLa [7],3.98%
same,solubility,[8],8.12 µg/mL
same,IC50,HeLa [9],90 nM
same,Activity,[10],31%
same,Activity,[11],2
same,Activity,HeLa [12],17.4%
same,Vd/F,[13],11.3 L/kg
same,IC50,SiHa [14],150 nM
same,Activity,HeLa [15],51.5%
same,Activity,HeLa [16],36.8%
same,Activity,HeLa [17],7.29%
same,Activity,HeLa [18],0.26%
same,LD50 at 336 h,[19],1000 mg/kg
same,Retention_time,[20],2.06 min
same,Activity,HeLa [21],3%
same,IC50,SiHa [22],150 nM
same,half-life,[23],1.56 h
same,IC50,[24],22300 nM
same,Activity,HeLa [25],6.7%
same,Activity,[26],Non-Toxic
same,solubility,[27],31.7 µg/mL
same,Activity,[28],Non-Toxic
same,solubility,[29],17.1 µg/mL
same,IC50,[30],110 nM
same,Activity,HeLa [31],24.7%
COc1ccc(/C=C\c2cc(OC)c(OC)c(OC)c2)cc1O [COMBRETASTATIN A4],logP,[1],2.04
same,IC50,[2],10300 nM
same,Activity,HeLa [32],5.94%
same,IC50,[3],14400 nM
same,IC50 at 24 h,[4],116000 nM
same,IC50,HeLa [5],4.2 nM
same,solubility,[8],9.85 µg/mL
same,Activity,HeLa [33],43.8%
same,IC50,HeLa [9],4.2 nM
same,Activity,HeLa [34],0.62%
same,IC50,SiHa [14],29 nM
same,IC50,SiHa [22],29 nM
same,solubility,[27],3.23 µg/mL
same,Activity,HeLa [35],6.68%
same,solubility,[29],4.34 µg/mL
same,Activity,HeLa [36],23.5%
same,IC50,[30],8 nM
